Reference: ChEMBL document CHEMBL5346882 (Eur J Med Chem, 2023)

Legend:
[1] = Drug metabolism in human liver microsomes assessed as hydroxylation mediated metabolite formation; format: ADME, Microsome
[2] = molecular target: T1, Cholinesterase (Homo sapiens, UniProt P06276)
Description: Inhibition of human recombinant BuChE using butyrylthiocholine iodide as substrate preincubated for 5 mins followed by substrate addition and measured after 5 mins by DTNB-reagent based Ellman's method

[3] = molecular target: Cytochrome P450 2D6 (Homo sapiens, UniProt P10635); assay: Inhibition of CYP2D6 (unknown origin) at 10 uM; format: ADME
[4] = molecular target: Cytochrome P450 3A4 (Homo sapiens, UniProt P08684); assay: Inhibition of CYP3A4 (unknown origin) at 10 uM; format: ADME
Chain of Cytochrome P450 3A4 (P08684 whole entry): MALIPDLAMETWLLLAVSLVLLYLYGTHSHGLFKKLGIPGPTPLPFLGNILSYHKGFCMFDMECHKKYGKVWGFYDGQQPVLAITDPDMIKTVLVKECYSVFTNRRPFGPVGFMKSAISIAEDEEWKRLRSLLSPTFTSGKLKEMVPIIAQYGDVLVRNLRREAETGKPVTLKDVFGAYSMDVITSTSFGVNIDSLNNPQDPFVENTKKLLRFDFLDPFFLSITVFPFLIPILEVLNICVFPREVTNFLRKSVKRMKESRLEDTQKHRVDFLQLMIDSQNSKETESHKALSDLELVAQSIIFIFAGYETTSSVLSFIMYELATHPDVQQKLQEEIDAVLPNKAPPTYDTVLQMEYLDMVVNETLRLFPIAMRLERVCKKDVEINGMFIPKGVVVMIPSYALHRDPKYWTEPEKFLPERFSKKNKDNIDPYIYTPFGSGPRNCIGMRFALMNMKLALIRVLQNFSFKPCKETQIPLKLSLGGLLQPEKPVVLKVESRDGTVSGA

[5] = molecular target: Cholinesterase (Equus caballus, UniProt P81908)
Chain of Cholinesterase (Equus caballus, UniProt P81908) (P81908 whole entry): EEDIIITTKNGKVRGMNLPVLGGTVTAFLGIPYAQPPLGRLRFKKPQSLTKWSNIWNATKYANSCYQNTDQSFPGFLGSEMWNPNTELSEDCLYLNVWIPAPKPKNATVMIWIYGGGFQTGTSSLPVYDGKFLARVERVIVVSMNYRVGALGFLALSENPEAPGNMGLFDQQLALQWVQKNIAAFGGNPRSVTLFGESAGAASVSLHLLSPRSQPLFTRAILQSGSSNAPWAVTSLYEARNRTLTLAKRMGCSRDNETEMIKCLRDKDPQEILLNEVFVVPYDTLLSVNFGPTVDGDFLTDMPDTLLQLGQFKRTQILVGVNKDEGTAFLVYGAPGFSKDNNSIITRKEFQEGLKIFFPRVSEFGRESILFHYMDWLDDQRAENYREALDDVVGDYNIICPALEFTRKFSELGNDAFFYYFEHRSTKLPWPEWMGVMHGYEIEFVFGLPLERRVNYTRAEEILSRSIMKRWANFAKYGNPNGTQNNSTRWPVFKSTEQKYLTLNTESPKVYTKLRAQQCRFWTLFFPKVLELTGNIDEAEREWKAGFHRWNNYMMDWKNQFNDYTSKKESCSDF
Description: Inhibition of horse serum BuChE using butyrylthiocholine iodide as substrate preincubated for 5 mins followed by substrate addition and measured after 5 mins by DTNB-reagent based Ellman's method

[6] = Drug metabolism in human liver microsomes assessed as N-dealkylation mediated metabolite formation; format: ADME, Microsome
[7] = Drug metabolism in human liver microsomes assessed as oxidation mediated metabolite formation; format: ADME, Microsome
[8] = Metabolic stability in human liver microsomes assessed as parent compound remaining incubated for 120 mins in presence of NADPH regeneration system by UPLC/MS analysis; format: ADME, Microsome; settings: read-out: Stability
[9] = molecular target: ATP-dependent translocase ABCB1 (Homo sapiens, UniProt P08183); assay: Substrate activity at P-gp membranes (unknown origin) at 100 uM incubated for 40 mins by luminescent glo assay relative to control; format: ADME, cell membranes, Membrane
[10] = molecular target: hERG (KCNH2) (Homo sapiens, UniProt Q12809); assay: Inhibition of human ERG at 10 uM relative to control; format: toxicity
Chain of hERG (KCNH2) (Q12809 whole entry): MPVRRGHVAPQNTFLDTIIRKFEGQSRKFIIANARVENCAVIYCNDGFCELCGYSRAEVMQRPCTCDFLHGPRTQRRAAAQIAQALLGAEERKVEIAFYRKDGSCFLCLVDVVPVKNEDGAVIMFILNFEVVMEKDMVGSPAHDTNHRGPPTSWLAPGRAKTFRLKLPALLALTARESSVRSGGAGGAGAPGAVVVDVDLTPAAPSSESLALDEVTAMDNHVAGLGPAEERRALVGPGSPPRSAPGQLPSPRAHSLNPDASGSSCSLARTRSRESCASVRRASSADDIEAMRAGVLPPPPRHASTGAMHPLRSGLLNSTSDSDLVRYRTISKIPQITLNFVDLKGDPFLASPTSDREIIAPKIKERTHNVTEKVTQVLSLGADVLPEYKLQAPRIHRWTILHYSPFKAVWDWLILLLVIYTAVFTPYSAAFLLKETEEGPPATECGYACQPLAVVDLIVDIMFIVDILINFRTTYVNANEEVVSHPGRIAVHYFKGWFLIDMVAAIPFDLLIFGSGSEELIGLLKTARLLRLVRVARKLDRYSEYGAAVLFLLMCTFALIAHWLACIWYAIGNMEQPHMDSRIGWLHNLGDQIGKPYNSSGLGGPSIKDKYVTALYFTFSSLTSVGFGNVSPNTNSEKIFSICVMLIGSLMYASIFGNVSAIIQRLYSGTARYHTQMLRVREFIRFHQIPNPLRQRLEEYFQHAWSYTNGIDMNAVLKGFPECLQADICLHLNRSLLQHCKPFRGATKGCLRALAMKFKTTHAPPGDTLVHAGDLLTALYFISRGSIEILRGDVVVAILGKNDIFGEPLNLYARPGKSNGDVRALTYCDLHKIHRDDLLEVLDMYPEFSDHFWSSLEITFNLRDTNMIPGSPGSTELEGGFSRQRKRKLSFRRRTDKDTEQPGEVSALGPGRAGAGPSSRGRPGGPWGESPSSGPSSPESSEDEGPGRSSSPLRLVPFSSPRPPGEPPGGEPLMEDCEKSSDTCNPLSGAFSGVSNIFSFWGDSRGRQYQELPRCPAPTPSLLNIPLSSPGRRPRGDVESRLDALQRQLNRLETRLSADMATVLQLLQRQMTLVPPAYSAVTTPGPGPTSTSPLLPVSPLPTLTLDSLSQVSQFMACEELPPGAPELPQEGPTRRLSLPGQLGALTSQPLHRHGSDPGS

[11] = in vitro; settings: human, HepG2 cells
Description: Hepatotoxicity in human HepG2 cells assessed as reduction in cell viability incubated for 72 hrs by MTS assay

[12] = cells; settings: Mus musculus, HEK293
Description: Inhibition of mouse GAT2 expressed in HEK293 cells assessed as reduction in [3H]-GABA uptake incubated for 10 mins

[13] = molecular target: T2, GABA transporter 4 (Mus musculus, UniProt P31650); assay: Inhibition of mouse GAT4 expressed in HEK293 cells assessed as reduction in [3H]-GABA uptake incubated for 10 mins; format: cell-based
T2 sequence (P31650 whole entry): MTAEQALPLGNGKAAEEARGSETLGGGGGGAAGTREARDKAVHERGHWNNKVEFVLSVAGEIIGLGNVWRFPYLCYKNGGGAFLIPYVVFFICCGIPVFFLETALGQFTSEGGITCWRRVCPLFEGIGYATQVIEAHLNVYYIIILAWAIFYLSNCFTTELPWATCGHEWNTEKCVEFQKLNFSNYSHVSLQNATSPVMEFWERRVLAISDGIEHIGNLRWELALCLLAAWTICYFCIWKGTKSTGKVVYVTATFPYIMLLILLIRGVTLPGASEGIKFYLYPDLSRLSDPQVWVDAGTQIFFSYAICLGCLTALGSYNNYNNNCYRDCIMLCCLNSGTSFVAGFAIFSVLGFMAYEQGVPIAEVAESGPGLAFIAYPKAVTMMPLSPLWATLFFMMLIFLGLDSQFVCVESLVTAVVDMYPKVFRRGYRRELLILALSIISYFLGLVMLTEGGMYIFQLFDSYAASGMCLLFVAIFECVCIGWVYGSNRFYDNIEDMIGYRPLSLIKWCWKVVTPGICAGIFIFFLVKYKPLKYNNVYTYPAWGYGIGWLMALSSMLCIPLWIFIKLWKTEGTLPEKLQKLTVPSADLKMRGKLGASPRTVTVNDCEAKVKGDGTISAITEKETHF

[14] = molecular target: Sodium- and chloride-dependent GABA transporter 1 (Mus musculus, UniProt P31648); assay: Inhibition of mouse GAT1 expressed in HEK293 cells assessed as reduction in [3H]-GABA uptake incubated for 10 mins; format: cell-based
[15] = cells; settings: Mus musculus, HEK293; remark: listed apart in the source
Description: Inhibition of mouse GAT3 expressed in HEK293 cells assessed as reduction in [3H]-GABA uptake incubated for 10 mins

[16] = molecular target: T1, Cholinesterase; assay: Inhibition of human recombinant BuChE using butyrylthiocholine iodide as substrate at 1 uM preincubated for 5 mins followed by substrate addition and measured after 5 mins by DTNB-reagent based Ellman's method relative to control; settings: time 10.0 min
[17] = molecular target: Cholinesterase (Equus caballus) (UniProt P81908); assay: Inhibition of horse serum BuChE using butyrylthiocholine iodide as substrate at 10 uM preincubated for 5 mins followed by substrate addition and measured after 5 mins by DTNB-reagent based Ellman's method relative to control; format: cell-free; settings: time 10.0 min
Chain of Cholinesterase (Equus caballus) (P81908 whole entry): as the sequence (P81908 whole entry) above

[18] = Toxicity in Albino Swiss CD-1 mouse model of scopolamine induced memory deficit assessed as sedation at 30 mg/kg, ip pretreated for 30 mins followed by scopolamine administration and measured after 30 mins; format: organism-based; settings: in vivo, 1 h, time 60 min
[19] = Toxicity in Albino Swiss CD-1 mouse model of scopolamine induced memory deficit assessed as motor deficit at 30 mg/kg, ip pretreated for 30 mins followed by scopolamine administration and measured after 30 mins; format: organism-based; settings: in vivo, 1 h, time 60 min

Chain of Cytochrome P450 2D6 (P10635 whole entry): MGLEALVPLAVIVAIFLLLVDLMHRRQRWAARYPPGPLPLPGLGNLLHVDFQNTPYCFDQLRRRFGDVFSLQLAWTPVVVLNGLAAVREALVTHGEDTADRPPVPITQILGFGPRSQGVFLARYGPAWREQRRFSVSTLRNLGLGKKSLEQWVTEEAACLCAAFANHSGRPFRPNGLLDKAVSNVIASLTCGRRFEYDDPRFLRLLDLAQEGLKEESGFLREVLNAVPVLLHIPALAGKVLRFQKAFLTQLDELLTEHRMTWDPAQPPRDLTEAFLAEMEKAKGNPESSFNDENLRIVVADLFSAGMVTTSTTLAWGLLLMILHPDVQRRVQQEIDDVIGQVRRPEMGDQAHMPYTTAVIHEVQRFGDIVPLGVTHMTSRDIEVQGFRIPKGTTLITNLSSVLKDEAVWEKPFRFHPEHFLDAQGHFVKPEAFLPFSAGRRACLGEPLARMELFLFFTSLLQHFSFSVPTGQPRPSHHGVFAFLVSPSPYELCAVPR
T1 sequence (P06276 whole entry): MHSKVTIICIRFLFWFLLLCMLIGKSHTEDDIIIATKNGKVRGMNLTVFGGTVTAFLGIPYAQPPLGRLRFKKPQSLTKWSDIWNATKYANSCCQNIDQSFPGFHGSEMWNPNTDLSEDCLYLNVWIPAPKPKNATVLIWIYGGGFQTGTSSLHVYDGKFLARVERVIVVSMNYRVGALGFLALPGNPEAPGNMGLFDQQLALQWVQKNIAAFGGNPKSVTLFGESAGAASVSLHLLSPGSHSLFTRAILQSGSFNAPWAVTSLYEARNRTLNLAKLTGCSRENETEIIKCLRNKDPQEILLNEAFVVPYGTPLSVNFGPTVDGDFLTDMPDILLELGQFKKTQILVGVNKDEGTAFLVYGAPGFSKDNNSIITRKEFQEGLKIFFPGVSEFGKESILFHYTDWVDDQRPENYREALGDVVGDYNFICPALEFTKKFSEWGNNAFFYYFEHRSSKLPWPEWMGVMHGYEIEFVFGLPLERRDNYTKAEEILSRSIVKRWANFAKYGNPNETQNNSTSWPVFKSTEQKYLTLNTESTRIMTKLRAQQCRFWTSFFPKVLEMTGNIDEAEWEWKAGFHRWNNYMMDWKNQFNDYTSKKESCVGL

For O=C(CC(c1ccccc1)c1ccccc1)NCC(O)CNCc1ccccc1 (racemic), the Drug metabolism [1] was “Metabolite_Detected”, the IC50 [2] was 280 nM and the “inhibition (INH)” value [3] was “Active”. For the same compound, the “inhibition (INH)” value [4] was “Active”, the IC50 [5] was 610 nM and the Drug metabolism [6] was “Metabolite_Detected”. The Drug metabolism [7] was “Metabolite_Detected” and the remaining at 2 h [8] was 66%.

With O=C(NCC(O)CNCc1cccc(C(F)(F)F)c1)C(c1ccccc1)c1ccccc1 (racemic) the IC50 [2] was 700 nM and the IC50 [5] was 960 nM.

CC(C)c1cccc(CNCC(O)CNC(=O)CC(c2ccccc2)c2ccccc2)c1 (racemic) gave an IC50 [2] of 260 nM and an IC50 [5] of 630 nM.

With CC(C)(C)c1ccc(CNCC(O)CNC(=O)CC(c2ccccc2)c2ccccc2)cc1 (racemic) the IC50 [2] was 160 nM and the IC50 [5] was 1940 nM.

For O=C(CC(c1ccccc1)c1ccccc1)NC[C@@H](O)CNCC1CCCCC1, the Activity [9] was “<= 190%”, the inhibition at 10 µM [10] was less than 50% and the “inhibition (INH)” value [3] was “Active”. The “inhibition (INH)” value [4] was “Active” and the CC50 at 72 h [11] was 3210 nM.

Work on CC(C)(C)c1ccc(CNCC(O)CNC(=O)C(c2ccccc2)c2ccccc2)cc1 (racemic) yielded an IC50 [2] of 300 nM and an IC50 [5] of 1120 nM.

In the case of CC(C)(C)c1cccc(CNCC(O)CNC(=O)CC(c2ccccc2)c2ccccc2)c1 (racemic), the IC50 [12] is reported as greater than 10000 nM, the IC50 [13] is reported as greater than 10000 nM and the IC50 [2] is reported as 180 nM. The IC50 [14] was greater than 10000 nM, the IC50 [5] was 320 nM and the IC50 [15] was greater than 10000 nM.

O=C(NCC(O)CNCc1ccccc1)C(c1ccccc1)c1ccccc1 (racemic) showed an IC50 [12] greater than 10000 nM, an inhibition [16] of less than 20% and an IC50 [13] greater than 10000 nM. The IC50 [14] was greater than 10000 nM, the IC50 [5] was 2540 nM and the IC50 [15] was greater than 10000 nM.

For O=C(NC[C@H](O)CNCC1CCCCC1)C(c1ccccc1)c1ccccc1, the “inhibition (INH)” value [3] was “Active”, the “inhibition (INH)” value [4] was “Active” and the CC50 at 72 h [11] was 18700 nM.

For CC(C)(NCC(O)CNC(=O)C(c1ccccc1)c1ccccc1)c1ccccc1 (racemic), the inhibition [16] was less than 20% and the inhibition [17] was 42%.

With O=C(CC(c1ccccc1)c1ccccc1)NC[C@H](O)CNCC1CCCCC1 the Activity [9] was “<= 190%”, the Activity [18] was “Toxic” and the inhibition at 10 µM [10] was less than 50%. The Activity [19] was “Toxic”, the “inhibition (INH)” value [3] was “Active” and the “inhibition (INH)” value [4] was “Active”. It also gave a CC50 at 72 h [11] of 2850 nM.

Work on COc1cccc(CNCC(O)CNC(=O)C(c2ccccc2)c2ccccc2)c1 (racemic) yielded an inhibition [16] of 70% and an IC50 [5] of 2180 nM.

With C[C@H](NCC(O)CNC(=O)C(c1ccccc1)c1ccccc1)c1ccccc1 (mixture of isomers) the inhibition [16] was less than 20% and the IC50 [5] was 4540 nM.

With O=C(CC(c1ccccc1)c1ccccc1)NCC(O)CNCc1cccc(C(F)(F)F)c1 (racemic) the IC50 [2] was 410 nM and the IC50 [5] was 1730 nM.

In the case of O=C(NC[C@@H](O)CNCC1CCCCC1)C(c1ccccc1)c1ccccc1, the “inhibition (INH)” value [3] is reported as “Active”, the “inhibition (INH)” value [4] is reported as “Active” and the CC50 at 72 h [11] is reported as 25800 nM.

With CC(C)(C)c1cccc(CNCC(O)CNC(=O)C(c2ccccc2)c2ccccc2)c1 (racemic) the IC50 [12] was greater than 10000 nM, the IC50 [13] was greater than 10000 nM and the IC50 [2] was 100 nM. It also gave an IC50 [14] greater than 10000 nM, an IC50 [5] of 260 nM and an IC50 [15] greater than 10000 nM.

With O=C(CC(c1ccccc1)c1ccccc1)NCC(O)CNCC1CC1 (racemic) the IC50 [12] was greater than 10000 nM, the inhibition [16] was 46% and the IC50 [13] was greater than 10000 nM. The IC50 [14] was greater than 10000 nM, the IC50 [5] was 3580 nM and the IC50 [15] was greater than 10000 nM.

Work on CC(C)(NCC(O)CNC(=O)CC(c1ccccc1)c1ccccc1)c1ccccc1 (racemic) yielded an inhibition [16] of less than 20% and an inhibition [17] of 44%.

O=C(NCC(O)CNCC1CC1)C(c1ccccc1)c1ccccc1 (racemic) showed an inhibition [16] of less than 20% and an inhibition [17] of 47%.

With O=C(NCC(O)CNCC1CCCCC1)C(c1ccccc1)c1ccccc1 (stereo not drawn) the “inhibition (INH)” value [3] was “Active”, the “inhibition (INH)” value [4] was “Active” and the Drug metabolism [6] was “Metabolite_Detected”. For the same compound, the remaining at 2 h [8] was greater than 80%.

In the case of C[C@H](NCC(O)CNC(=O)CC(c1ccccc1)c1ccccc1)c1ccccc1 (mixture of isomers), the inhibition [16] is reported as 34% and the IC50 [5] is reported as 4770 nM.

COc1cccc(CNCC(O)CNC(=O)CC(c2ccccc2)c2ccccc2)c1 (racemic) showed an IC50 [2] of 250 nM and an IC50 [5] of 660 nM.
